Assay results from ChEMBL document CHEMBL1955765, “Wake-promoting agents: search for next generation modafinil: part II” (Bioorg Med Chem Lett, 2012).

Columns and labels:
[1] = target: T1, Sodium-dependent dopamine transporter (Rattus norvegicus, UniProt P23977); test: Inhibition of rat DAT
[2] = target: T1, Sodium-dependent dopamine transporter; test: Inhibition of rat DAT-mediated uptake
[3] = target: Transporter (Rattus norvegicus, UniProt Q63380); test: Inhibition of rat NET-mediated uptake
[4] = target: Sodium-dependent serotonin transporter (Rattus norvegicus, UniProt P31652); test: Inhibition of rat SERT-mediated uptake
[5] = target: Cytochrome P450 2C19 (Homo sapiens, UniProt P33261); test: Inhibition of CYP2C19 in human microsome; type: ADME
[6] = target: Cytochrome P450 3A4 (Homo sapiens, UniProt P08684); test: Inhibition of CYP3A4 in human microsome; type: ADME
[7] = target: Cytochrome P450 3A5 (Homo sapiens, UniProt P20815); test: Inhibition of CYP3A5 in human microsome; type: ADME
[8] = target: Cytochrome P450 2D6 (Homo sapiens, UniProt P10635); test: Inhibition of CYP2D6 in human microsome; type: ADME
[9] = target: Cytochrome P450 2C9 (Homo sapiens, UniProt P11712); test: Inhibition of CYP2C9 in human microsome; type: ADME
[10] = target: T2, Cytochrome P450 1A1 (Homo sapiens, UniProt P04798); test: (§1) Inhibition of CYP1A1 in human microsome at 100 uM; type: ADME, microsomes; settings: microsomes, 100 µM
T2 sequence (P04798 whole entry): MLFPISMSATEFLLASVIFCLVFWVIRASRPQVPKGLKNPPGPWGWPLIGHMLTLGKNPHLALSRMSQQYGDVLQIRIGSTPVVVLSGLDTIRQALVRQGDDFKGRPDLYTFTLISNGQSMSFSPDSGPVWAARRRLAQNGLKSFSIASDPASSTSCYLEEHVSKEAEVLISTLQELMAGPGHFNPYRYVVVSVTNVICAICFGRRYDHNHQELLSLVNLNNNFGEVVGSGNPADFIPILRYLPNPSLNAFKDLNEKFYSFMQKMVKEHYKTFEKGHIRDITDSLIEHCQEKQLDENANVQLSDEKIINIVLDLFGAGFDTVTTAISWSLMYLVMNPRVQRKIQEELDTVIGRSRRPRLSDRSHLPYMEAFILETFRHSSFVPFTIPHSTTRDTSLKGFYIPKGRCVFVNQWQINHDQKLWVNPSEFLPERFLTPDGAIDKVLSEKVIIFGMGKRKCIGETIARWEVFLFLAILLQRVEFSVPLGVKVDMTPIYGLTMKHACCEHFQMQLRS

[11] = target: T3, Cytochrome P450 1A2 (Homo sapiens, UniProt P05177); test: (§2) Inhibition of CYP1A2 in human microsome at 100 uM; type: ADME, microsomes; settings: microsomes, 100 µM
T3 sequence (P05177 whole entry): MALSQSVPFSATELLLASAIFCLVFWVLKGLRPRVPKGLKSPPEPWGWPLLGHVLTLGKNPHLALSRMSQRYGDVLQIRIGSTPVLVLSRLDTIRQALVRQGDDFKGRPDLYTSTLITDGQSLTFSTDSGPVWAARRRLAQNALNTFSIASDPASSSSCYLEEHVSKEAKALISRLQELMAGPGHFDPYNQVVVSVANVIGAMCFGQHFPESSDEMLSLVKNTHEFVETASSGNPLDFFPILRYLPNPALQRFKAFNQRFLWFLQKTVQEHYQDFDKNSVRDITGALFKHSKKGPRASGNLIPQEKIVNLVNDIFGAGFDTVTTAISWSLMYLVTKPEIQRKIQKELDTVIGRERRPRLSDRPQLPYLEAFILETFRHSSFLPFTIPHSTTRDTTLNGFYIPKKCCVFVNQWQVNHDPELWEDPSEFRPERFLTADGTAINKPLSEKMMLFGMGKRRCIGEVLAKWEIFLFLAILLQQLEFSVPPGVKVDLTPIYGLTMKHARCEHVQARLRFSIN

[12] = test system: Rattus norvegicus; test: Wake promoting activity in Sprague-Dawley rat assessed as increase of wake duration at 100 mg/kg, ip after 4 hrs (reference value: 79.2 +/- 7.2 mins); type: functional; settings: route intraperitoneal
[13] = target: Transporter (Rattus norvegicus) (UniProt Q63380); test: Inhibition of rat NET at 10 uM
[14] = target: Sodium-dependent serotonin transporter (Rattus norvegicus) (UniProt P31652); test: Inhibition of rat SERT at 10 uM
[15] = target: T4, CYP1A1 (Homo sapiens, UniProt P04798); test: as §1; type: ADME, microsomes; settings: human microsomes
T4 sequence (P04798 whole entry): T2 sequence (P04798 whole entry)

[16] = target: T5, CYP1A2 (Homo sapiens, UniProt P05177); test: as §2; type: ADME, microsomes; settings: human microsomes
T5 sequence (P05177 whole entry): T3 sequence (P05177 whole entry)

T1 sequence (P23977 whole entry): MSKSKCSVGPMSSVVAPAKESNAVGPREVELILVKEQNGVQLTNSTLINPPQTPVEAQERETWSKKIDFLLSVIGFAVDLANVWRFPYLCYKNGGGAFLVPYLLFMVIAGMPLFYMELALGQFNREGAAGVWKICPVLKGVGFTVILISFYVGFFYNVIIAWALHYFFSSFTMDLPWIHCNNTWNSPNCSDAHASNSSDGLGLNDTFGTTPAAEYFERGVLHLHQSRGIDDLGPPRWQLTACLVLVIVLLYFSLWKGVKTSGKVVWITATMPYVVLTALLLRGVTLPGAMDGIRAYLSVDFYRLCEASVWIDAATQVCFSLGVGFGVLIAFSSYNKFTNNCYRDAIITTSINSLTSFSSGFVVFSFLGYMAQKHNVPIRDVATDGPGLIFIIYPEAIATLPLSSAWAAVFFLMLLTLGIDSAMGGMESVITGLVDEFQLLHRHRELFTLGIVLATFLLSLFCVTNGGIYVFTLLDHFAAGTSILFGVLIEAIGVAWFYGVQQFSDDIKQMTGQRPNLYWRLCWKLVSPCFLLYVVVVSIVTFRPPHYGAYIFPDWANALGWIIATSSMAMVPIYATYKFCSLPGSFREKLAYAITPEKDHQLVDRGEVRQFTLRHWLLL
Cytochrome P450 2C9, sequence (P11712 whole entry): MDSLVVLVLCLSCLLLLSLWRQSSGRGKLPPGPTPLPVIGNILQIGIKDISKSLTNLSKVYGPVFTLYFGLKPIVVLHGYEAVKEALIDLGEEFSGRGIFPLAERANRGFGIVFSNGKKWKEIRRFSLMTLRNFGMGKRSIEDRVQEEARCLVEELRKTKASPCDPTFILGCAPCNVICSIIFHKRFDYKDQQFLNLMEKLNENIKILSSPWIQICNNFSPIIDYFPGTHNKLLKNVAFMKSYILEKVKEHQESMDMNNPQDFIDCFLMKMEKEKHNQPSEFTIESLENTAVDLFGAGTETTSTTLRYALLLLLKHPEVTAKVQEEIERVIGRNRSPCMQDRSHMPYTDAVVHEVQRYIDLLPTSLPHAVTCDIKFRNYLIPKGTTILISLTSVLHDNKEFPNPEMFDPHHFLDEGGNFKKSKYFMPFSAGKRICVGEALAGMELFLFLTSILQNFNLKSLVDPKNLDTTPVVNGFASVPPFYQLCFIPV
Transporter, sequence (Q63380 whole entry): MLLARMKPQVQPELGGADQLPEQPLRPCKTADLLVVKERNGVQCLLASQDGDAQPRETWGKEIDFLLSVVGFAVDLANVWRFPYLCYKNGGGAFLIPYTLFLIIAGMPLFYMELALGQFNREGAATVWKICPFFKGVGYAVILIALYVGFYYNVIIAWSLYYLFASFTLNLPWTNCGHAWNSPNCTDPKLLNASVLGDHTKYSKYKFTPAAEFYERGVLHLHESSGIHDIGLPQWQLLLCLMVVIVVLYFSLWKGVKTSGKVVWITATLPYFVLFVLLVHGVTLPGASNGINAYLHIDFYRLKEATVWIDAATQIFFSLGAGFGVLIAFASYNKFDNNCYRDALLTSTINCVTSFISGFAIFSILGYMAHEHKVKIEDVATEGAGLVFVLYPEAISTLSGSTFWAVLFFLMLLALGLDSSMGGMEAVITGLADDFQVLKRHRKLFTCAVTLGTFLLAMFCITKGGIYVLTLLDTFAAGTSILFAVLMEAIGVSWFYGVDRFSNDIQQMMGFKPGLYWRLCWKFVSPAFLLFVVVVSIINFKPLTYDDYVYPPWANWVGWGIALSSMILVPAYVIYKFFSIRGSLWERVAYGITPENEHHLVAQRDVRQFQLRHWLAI
Transporter (Rattus norvegicus), sequence (Q63380 as listed by the source): as the sequence (Q63380 whole entry) above
Cytochrome P450 3A4, sequence (P08684 whole entry): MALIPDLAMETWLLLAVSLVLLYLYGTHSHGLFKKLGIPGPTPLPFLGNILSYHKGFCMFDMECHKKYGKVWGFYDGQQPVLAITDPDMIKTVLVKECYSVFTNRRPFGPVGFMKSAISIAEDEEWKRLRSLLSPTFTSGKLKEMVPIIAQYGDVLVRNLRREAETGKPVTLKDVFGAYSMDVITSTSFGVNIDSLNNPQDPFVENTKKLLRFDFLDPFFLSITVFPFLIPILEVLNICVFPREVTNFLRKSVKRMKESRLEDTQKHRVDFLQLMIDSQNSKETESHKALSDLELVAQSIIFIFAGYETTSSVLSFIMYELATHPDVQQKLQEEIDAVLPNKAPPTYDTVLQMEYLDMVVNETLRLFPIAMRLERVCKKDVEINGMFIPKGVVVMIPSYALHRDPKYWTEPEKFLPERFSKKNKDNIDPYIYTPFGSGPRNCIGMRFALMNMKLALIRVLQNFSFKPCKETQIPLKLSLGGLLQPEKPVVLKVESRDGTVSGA
Sodium-dependent serotonin transporter, sequence (P31652 whole entry): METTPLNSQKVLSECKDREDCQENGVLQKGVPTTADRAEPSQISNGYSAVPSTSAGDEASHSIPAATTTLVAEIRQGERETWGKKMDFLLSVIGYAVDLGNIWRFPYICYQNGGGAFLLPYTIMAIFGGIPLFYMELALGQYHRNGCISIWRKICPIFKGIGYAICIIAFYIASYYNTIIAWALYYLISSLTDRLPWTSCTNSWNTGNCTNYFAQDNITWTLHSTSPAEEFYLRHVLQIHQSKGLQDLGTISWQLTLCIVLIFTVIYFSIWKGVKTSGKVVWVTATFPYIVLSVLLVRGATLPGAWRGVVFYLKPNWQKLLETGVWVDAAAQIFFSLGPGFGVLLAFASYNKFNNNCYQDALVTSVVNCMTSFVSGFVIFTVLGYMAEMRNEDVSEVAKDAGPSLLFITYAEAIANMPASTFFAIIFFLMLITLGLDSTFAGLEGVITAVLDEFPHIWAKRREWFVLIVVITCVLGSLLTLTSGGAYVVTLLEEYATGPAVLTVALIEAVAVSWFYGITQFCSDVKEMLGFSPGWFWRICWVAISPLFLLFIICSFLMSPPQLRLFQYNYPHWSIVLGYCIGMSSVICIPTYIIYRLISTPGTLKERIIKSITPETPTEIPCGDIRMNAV
Sodium-dependent serotonin transporter (Rattus norvegicus), sequence (P31652 whole entry): as above
Cytochrome P450 2D6, sequence (P10635 whole entry): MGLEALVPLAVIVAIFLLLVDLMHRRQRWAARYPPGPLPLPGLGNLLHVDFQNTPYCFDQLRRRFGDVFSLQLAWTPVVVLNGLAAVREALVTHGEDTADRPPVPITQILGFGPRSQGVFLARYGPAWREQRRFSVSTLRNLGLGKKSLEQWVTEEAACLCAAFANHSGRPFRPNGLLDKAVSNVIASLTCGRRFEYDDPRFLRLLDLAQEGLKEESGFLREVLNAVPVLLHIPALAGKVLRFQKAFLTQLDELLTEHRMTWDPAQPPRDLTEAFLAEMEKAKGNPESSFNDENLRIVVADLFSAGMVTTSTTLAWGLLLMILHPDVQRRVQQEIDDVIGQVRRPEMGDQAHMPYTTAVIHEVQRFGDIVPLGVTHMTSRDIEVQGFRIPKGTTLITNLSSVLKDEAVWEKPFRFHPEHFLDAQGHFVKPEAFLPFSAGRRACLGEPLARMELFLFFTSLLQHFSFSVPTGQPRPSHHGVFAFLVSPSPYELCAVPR
Cytochrome P450 3A5, sequence (P20815 whole entry): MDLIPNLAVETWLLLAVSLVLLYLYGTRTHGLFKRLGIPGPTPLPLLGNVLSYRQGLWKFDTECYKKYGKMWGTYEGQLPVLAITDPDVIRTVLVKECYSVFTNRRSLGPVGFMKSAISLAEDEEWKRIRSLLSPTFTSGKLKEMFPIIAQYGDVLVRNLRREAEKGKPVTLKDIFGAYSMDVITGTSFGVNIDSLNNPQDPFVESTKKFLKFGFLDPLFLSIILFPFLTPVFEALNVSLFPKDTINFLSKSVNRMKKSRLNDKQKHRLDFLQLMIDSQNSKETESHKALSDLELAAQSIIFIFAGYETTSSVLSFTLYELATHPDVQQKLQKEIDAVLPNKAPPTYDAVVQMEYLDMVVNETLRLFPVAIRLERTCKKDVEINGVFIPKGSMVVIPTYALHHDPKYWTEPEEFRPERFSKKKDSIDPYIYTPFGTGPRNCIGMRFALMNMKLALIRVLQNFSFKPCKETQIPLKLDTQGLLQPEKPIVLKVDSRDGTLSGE
Cytochrome P450 2C19, sequence (P33261 whole entry): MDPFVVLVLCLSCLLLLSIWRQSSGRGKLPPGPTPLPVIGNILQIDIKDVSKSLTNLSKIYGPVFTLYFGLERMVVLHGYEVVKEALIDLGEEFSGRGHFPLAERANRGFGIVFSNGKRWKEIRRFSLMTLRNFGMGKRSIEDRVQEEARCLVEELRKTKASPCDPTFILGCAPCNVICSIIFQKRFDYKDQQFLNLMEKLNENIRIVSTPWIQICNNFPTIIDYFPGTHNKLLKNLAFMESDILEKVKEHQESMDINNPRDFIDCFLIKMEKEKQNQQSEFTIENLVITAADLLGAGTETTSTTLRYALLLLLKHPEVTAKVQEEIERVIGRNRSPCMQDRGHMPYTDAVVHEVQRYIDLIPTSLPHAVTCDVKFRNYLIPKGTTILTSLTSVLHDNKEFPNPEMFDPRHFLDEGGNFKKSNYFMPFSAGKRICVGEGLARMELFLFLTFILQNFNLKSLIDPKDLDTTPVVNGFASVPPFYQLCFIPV

| IC50 [1] | IC50 [2] | IC50 [3] | IC50 [4] | IC50 [5] | IC50 [6] | IC50 [7] | IC50 [8] | IC50 [9] | inhibition (INH) [10] | inhibition (INH) [11] | inhibition [13] | inhibition [14] | inhibition at 100 µM [15] | inhibition at 100 µM [16] | Compound | Time [12] |
| --- | --- | --- | --- | --- | --- | --- | --- | --- | --- | --- | --- | --- | --- | --- | --- | --- |
| 4.2 µM | 3.8 µM | 32 µM | > 300 µM | 112 µM | 159 µM | 159 µM | 151 µM | 129 µM | 20% | 20% | – | – | – | – | NC(=O)C[S+]([O-])Cc1ccccc1-c1ccc(Cl)cc1 (single isomer, unassigned; (+)) [listing 1 of 2 here] | 227.1 min |
| – | – | – | – | – | – | – | – | – | – | – | 12% | 4% | – | – | NC(=O)C[S+]([O-])Cc1ccccc1-c1ccc(Cl)cc1 (single isomer, unassigned; (+)) [listing 2 of 2 here] | – |
| 0.4 µM | – | 11 µM | > 300 µM | 174 µM | 139 µM | 139 µM | 177 µM | 233 µM | – | – | – | – | 14% | 14% | NC(=O)C[S+]([O-])Cc1ccccc1-c1ccc(Cl)cc1 (single isomer, unassigned; (-)) [listing 1 of 2 here] | 238.5 min |
| – | – | – | – | – | – | – | – | – | – | – | 16% | 3% | – | – | NC(=O)C[S+]([O-])Cc1ccccc1-c1ccc(Cl)cc1 (single isomer, unassigned; (-)) [listing 2 of 2 here] | – |
